Consider 3 molecules from patent publication US12122816B2, “Long acting peptide tyrosine tyrosine (PYY) analogs and methods of use” (Intarcia Therapeutics, Inc., priority 2020, dated 2024).

Holding throughout (test): NPY receptor functional assay (cAMP, HEK-CNG cells, ACTOne membrane potential dye)
Common to all, as to format: cell-based

One assay addresses T1, human Y2 receptor (Homo sapiens, UniProt P49146).
T1 sequence (P49146 1-381): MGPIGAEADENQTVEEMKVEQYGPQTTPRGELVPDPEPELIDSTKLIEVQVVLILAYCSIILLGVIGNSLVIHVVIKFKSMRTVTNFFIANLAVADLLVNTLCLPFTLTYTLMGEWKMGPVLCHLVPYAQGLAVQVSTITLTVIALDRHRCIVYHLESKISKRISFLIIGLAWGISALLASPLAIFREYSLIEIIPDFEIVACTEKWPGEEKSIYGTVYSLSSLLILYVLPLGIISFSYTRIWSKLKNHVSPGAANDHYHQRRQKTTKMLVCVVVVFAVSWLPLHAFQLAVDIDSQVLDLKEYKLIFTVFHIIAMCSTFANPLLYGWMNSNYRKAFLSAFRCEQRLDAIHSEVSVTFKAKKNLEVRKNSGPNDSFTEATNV
To be noted: NPY2R pEC50, HEK-CNG cells; standard PYY(3-36); species (human or rat) not given. The gist of the method: (§1)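 HEK-CNG cells stably expressing each human receptor; peptides added in triplicate for 50 minutes at room temperature, with agonism read as decreased isoproterenol-induced membrane potential dye signal (final/initial read).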

For the next assay, the target named is T2, human Y5 receptor (Homo sapiens, UniProt Q15761).
T2 sequence (Q15761 1-445): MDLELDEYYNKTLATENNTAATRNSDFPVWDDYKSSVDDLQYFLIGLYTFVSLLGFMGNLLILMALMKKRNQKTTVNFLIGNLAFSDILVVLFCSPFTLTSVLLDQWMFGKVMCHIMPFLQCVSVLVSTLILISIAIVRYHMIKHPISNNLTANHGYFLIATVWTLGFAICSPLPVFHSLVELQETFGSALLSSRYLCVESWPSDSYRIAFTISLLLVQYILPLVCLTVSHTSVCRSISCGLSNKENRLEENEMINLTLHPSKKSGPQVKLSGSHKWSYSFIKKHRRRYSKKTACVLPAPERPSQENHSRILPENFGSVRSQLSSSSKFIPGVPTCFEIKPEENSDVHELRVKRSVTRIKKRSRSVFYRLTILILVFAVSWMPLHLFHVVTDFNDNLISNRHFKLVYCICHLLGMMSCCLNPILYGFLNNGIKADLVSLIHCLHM
To be noted: NPY5R pEC50, HEK-CNG cells; standard NPY; species (human or rat) not given. The procedure, abridged:
as §1

The next assay addresses T3, human Y1 receptor (Homo sapiens, UniProt P25929).
T3 sequence (P25929 1-384): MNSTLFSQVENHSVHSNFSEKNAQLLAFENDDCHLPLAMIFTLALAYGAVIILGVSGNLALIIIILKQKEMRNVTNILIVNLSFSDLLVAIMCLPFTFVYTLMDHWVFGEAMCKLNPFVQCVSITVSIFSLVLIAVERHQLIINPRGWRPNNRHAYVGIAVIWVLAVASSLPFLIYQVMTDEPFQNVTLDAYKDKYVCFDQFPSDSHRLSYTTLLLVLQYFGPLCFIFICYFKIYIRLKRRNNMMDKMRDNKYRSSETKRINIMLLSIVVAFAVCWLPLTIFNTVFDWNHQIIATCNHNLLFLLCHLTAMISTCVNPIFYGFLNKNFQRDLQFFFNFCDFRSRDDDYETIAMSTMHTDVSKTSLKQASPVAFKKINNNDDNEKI
From the text: The NPY family of G-protein coupled receptors include Y1, Y2, Y4, and Y5 in humans and rats. […] Following agonist binding, the receptor-G protein complex activates a downstream intracellular signaling cascade which leads to inhibition of adenylate cyclase and a reduction in intracellular cAMP levels.
HEK-CNG cells stably expressing the human or rat Y1, Y2, Y4 or Y5 receptors (Codex Biosolutions) were used to characterize the functional potency of peptide agonists using the ActOne™ membrane potential dye kit (Codex Biosolutions). In addition to each NPY receptor, each cell line encodes a proprietary exogenous Cyclic Nucleotide-Gated (CNG) channel (Codex Biosolutions). The channel is activated by elevated intracellular levels of cAMP, resulting in ion flux and cell membrane depolarization which can be detected with a calcium sensitive dye or fluorescent membrane potential (MP) dye. Cells were carried in growth media containing 90% DMEM, 10% FBS, 250 mcg/mL G418 and 1 mcg/mL puromycin for no more than 15 passages.
Prior to testing, cells were counted and dispensed at 14,000 cells per well (Y1, Y4 and Y5) or 28,000 cells per well (Y2) into black 384 well Poly-D-Lysine plates at 20 mcL per well. Covered plates were then incubated at room temperature for 30 minutes followed by an overnight incubation at 37° C. in 5% C02. The following day, media was removed and wells were washed once with 40 mcL Dulbecco's phosphate buffered saline. […] Ten microliters of experimental peptide or peptide standard was added in triplicate to wells and incubated for 50 minutes at room temperature in the dark. Following this incubation step, plates were read again as before (final read).
NPY receptor activation, leading to a reduction in intracellular cAMP levels, is detected as a decrease in isoproteranol induced fluorescent signal. Peptide standard and experimental values were initially transformed in excel using the formula: final read/initial read. […] Normalized data was analyzed from triplicate tests and used to estimate the EC50 for each test peptide on each receptor. Data was fit in GraphPad Prism software (v8.2.1) using a 3-parameter logistic curve model: Y=Bottom+(Top−Bottom)/(1+10^((LogEC50−X))). EC50 values were converted to pEC50 values using the formula: pEC50=−Log(EC50).

As for `CC(C)C[C@H](NC(=O)[C@H](CC(=O)O)NC(=O)[C@H](CCCCN)NC(=O)[C@H](Cc1ccc(O)cc1)NC(=O)[C@H](Cc1ccc(O)cc1)NC(=O)[C@H](CCCNC(=N)N)NC(=O)[C@H](CC(N)=O)NC(=O)[C@H](Cc1c[nH]c2ccccc12)NC(=O)[C@H](CCC(=O)O)NC(=O)[C@H](CCC(=O)O)NC(=O)[C@@H]1CCCN1C(=O)[C@H](CO)NC(=O)[C@H](C)NC(=O)[C@H](CC(=O)O)NC(=O)[C@H](CCCCNC(=O)CC[C@H](NC(=O)CC[C@H](NC(=O)CCCCCCCCCCCCCCCCCCC(=O)O)C(=O)O)C(=O)O)NC(=O)CNC(=O)[C@@H]1CCCN1C(=O)[C@H](CCCCN)NC(=O)[C@H](CCC(=O)O)NC(=O)[C@@H]1CCCN1C(=O)[C@H](CCCCN)NC(=O)[C@@H]1CCCN1)C(=O)N[C@@H](CCCNC(=N)N)C(=O)N[C@@H](Cc1c[nH]cn1)C(=O)N[C@@H](Cc1ccc(O)cc1)C(=O)N[C@@H](CC(C)C)C(=O)N[C@@H](CC(N)=O)C(=O)N[C@@H](Cc1c[nH]c2ccccc12)C(=O)N[C@@H](CC(C)C)C(=O)N[C@H](C(=O)N[C@@H](CCCNC(=N)N)C(=O)N[C@@H](CCC(N)=O)C(=O)N[C@@H](CCCNC(=N)N)C(=O)N[C@@H](Cc1ccccc1)C(N)=O)[C@@H](C)O` [Compound A74], the values for the half-maximal effective concentration (EC50) on human Y2 receptor, on human Y5 receptor and on human Y1 receptor were 0.0501 nM, 1 nM and 0.501 nM, respectively.

`CC(C)C[C@H](NC(=O)[C@H](CC(=O)O)NC(=O)[C@H](CCCCN)NC(=O)[C@H](Cc1ccc(O)cc1)NC(=O)[C@H](Cc1ccc(O)cc1)NC(=O)[C@H](CCCNC(=N)N)NC(=O)[C@H](CC(N)=O)NC(=O)[C@H](Cc1c[nH]c2ccccc12)NC(=O)[C@H](CCC(=O)O)NC(=O)[C@H](CCCCN)NC(=O)[C@@H]1CCCN1C(=O)[C@H](CO)NC(=O)[C@H](C)NC(=O)[C@H](CC(=O)O)NC(=O)[C@H](CCC(=O)O)NC(=O)CNC(=O)[C@@H]1CCCN1C(=O)[C@H](CCCCNC(=O)CC[C@H](NC(=O)CC[C@H](NC(=O)CCCCCCCCCCCCCCCCC(=O)O)C(=O)O)C(=O)O)NC(=O)[C@H](CCC(=O)O)NC(=O)[C@@H]1CCCN1C(=O)[C@H](CCCCN)NC(=O)[C@@H]1CCCN1)C(=O)N[C@@H](CCCNC(=N)N)C(=O)N[C@@H](Cc1c[nH]cn1)C(=O)N[C@@H](Cc1ccc(O)cc1)C(=O)N[C@@H](CC(C)C)C(=O)N[C@@H](CC(N)=O)C(=O)N[C@@H](Cc1c[nH]c2ccccc12)C(=O)N[C@@H](CC(C)C)C(=O)N[C@H](C(=O)N[C@@H](CCCNC(=N)N)C(=O)N[C@@H](CCC(N)=O)C(=O)N[C@@H](CCCNC(=N)N)C(=O)N[C@@H](Cc1ccccc1)C(N)=O)[C@@H](C)O` [Compound A38]: the EC50 (usually the concentration giving half of the maximal effect) is 3.98 nM on human Y5 receptor and 2.51 nM at human Y1 receptor.

Take `CC(C)C[C@H](NC(=O)[C@H](CC(=O)O)NC(=O)[C@H](CCCCN)NC(=O)[C@H](Cc1ccc(O)cc1)NC(=O)[C@H](Cc1ccc(O)cc1)NC(=O)[C@H](CCCNC(=N)N)NC(=O)[C@H](CC(N)=O)NC(=O)[C@H](Cc1c[nH]c2ccccc12)NC(=O)[C@H](CCC(=O)O)NC(=O)[C@H](CCCCN)NC(=O)[C@@H]1CCCN1C(=O)[C@H](CO)NC(=O)[C@H](C)NC(=O)[C@H](CC(=O)O)NC(=O)[C@H](CCC(=O)O)NC(=O)CNC(=O)[C@@H]1CCCN1C(=O)[C@H](CCCCNC(=O)CC[C@H](NC(=O)CC[C@H](NC(=O)CCCCCCCCCCCCCCCCCCC(=O)O)C(=O)O)C(=O)O)NC(=O)[C@H](CCC(=O)O)NC(=O)[C@@H]1CCCN1C(=O)[C@H](CCCCN)NC(=O)[C@@H]1CCCN1)C(=O)N[C@@H](CCCNC(=N)N)C(=O)N[C@@H](Cc1c[nH]cn1)C(=O)N[C@@H](Cc1ccc(O)cc1)C(=O)N[C@@H](CC(C)C)C(=O)N[C@@H](CC(N)=O)C(=O)N[C@@H](Cc1c[nH]c2ccccc12)C(=O)N[C@@H](CC(C)C)C(=O)N[C@H](C(=O)N[C@@H](CCCNC(=N)N)C(=O)N[C@@H](CCC(N)=O)C(=O)N[C@@H](CCCNC(=N)N)C(=O)N[C@@H](Cc1ccccc1)C(N)=O)[C@@H](C)O` [Compound A72]: the EC50 at human Y2 receptor was 0.0158 nM; on human Y5 receptor it was 1.58 nM; on human Y1 receptor, 1 nM.
